Results as given in the supplement of paper PMC12076712.

Legend:
Experiment in all cases: pIC50, kinobeads binding competition
Conditions in all cases: cell material: Jurkat lysate
UniProt P27448 = molecular target: UniProt P27448
TNIK = TNIK (UniProt Q9UKE5)
UniProt Q15418 = molecular target: UniProt Q15418
MAP4K3 = molecular target: T1, MAP4K3 (UniProt Q8IVH8)
T1 sequence (whole entry): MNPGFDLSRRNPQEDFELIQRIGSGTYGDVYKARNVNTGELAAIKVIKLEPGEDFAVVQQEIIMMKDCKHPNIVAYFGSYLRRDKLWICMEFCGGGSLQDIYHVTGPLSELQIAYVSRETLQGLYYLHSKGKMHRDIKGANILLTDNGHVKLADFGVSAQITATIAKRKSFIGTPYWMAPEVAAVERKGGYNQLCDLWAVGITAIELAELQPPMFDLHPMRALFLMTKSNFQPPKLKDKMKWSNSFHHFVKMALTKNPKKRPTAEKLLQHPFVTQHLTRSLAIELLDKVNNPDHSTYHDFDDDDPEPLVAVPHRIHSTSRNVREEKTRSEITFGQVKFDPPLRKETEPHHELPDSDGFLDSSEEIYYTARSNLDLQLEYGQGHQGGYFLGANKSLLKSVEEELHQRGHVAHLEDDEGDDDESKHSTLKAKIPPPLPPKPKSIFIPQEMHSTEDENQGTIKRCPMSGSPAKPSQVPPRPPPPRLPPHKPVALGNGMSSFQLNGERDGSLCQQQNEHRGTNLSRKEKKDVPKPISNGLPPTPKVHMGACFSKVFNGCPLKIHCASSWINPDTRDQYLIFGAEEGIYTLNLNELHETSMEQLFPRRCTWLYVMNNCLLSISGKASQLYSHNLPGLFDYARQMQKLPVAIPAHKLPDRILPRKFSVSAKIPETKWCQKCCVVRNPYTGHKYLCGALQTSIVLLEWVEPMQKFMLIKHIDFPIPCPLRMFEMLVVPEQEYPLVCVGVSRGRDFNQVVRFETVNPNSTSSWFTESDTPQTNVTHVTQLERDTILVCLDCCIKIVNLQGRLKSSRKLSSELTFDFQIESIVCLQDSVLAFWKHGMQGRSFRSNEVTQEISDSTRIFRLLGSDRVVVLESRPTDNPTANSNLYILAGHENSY

MAP3K4 = MAP3K4 (UniProt Q9Y6R4)
UniProt P45985 = molecular target: T2, UniProt P45985
T2 sequence (whole entry): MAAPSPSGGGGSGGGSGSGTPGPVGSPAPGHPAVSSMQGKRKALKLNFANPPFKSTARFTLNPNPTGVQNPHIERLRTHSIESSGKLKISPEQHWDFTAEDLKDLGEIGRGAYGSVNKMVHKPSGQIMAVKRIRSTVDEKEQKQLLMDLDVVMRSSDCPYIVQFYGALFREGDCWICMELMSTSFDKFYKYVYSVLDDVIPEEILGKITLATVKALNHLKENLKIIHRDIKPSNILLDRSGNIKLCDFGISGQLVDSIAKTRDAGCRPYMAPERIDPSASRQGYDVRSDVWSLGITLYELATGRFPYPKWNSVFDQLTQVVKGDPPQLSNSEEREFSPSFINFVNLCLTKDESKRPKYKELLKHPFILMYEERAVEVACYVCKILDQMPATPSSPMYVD

UniProt O75716 = molecular target: UniProt O75716
TXK = molecular target: T3, TXK (UniProt P42681)
T3 sequence (whole entry): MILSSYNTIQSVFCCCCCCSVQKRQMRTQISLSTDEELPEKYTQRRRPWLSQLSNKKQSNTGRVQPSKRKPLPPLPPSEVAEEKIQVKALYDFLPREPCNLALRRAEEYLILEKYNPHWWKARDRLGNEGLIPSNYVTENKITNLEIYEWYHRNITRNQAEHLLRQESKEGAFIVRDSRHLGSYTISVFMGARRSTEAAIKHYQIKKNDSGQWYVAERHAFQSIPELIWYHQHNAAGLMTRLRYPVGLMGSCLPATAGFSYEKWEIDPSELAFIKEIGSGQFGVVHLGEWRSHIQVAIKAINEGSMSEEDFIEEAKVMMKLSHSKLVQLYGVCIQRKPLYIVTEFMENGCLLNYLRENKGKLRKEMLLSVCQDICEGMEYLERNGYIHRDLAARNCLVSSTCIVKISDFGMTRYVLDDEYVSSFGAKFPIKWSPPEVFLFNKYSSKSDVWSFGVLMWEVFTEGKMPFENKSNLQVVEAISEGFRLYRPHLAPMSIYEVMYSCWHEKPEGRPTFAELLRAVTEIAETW

Measured: pIC50

UniProt O75716, sequence (O75716 whole entry): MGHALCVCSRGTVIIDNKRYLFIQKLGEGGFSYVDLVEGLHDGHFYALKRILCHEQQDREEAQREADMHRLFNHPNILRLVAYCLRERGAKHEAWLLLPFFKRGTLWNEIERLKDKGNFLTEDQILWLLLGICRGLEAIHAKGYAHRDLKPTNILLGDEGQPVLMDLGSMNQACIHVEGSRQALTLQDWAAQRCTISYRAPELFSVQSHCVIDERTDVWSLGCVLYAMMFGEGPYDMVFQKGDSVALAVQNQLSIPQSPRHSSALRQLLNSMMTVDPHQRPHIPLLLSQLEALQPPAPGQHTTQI
MAP3K4, sequence (Q9Y6R4 whole entry): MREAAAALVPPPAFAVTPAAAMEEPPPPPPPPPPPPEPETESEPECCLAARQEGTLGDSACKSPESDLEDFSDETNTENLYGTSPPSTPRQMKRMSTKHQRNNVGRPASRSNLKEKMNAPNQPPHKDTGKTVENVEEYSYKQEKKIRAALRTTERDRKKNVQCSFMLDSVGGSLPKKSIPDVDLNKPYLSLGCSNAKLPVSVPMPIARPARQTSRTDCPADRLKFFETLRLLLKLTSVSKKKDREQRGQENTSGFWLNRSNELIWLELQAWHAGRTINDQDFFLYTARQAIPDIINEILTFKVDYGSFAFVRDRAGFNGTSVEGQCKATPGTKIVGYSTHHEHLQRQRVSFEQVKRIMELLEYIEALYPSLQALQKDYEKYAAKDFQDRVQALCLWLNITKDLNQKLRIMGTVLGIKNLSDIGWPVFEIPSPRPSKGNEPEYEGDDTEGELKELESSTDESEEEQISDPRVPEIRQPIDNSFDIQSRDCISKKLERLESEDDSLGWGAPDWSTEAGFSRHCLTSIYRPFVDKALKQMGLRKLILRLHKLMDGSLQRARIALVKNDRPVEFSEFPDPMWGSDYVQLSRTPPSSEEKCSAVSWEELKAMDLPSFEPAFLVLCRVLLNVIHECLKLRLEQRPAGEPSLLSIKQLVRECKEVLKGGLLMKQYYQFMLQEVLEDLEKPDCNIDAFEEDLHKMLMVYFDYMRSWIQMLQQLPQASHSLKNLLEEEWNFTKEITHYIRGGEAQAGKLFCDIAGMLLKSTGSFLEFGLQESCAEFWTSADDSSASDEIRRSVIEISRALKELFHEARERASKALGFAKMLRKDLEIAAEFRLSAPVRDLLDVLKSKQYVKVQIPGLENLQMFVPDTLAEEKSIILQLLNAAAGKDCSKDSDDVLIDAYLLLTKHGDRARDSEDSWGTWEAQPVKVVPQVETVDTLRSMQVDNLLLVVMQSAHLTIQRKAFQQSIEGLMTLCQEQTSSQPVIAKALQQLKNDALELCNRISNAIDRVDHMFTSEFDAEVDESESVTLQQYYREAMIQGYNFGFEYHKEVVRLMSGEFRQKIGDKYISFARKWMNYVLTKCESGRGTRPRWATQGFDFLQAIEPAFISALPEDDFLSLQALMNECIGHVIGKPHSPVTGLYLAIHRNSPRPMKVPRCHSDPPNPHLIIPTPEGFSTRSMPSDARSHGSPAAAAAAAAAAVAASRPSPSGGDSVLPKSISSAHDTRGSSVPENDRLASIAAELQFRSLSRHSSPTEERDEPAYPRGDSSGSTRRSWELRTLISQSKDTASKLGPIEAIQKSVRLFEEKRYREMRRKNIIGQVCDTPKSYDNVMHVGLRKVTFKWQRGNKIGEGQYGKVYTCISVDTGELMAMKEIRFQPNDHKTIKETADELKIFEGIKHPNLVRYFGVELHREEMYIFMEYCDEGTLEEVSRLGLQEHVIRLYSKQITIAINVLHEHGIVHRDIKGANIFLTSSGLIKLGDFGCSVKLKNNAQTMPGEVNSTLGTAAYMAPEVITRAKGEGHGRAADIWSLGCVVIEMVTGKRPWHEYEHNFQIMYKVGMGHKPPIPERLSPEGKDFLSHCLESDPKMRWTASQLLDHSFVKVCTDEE
TNIK, sequence (Q9UKE5 whole entry, looked up): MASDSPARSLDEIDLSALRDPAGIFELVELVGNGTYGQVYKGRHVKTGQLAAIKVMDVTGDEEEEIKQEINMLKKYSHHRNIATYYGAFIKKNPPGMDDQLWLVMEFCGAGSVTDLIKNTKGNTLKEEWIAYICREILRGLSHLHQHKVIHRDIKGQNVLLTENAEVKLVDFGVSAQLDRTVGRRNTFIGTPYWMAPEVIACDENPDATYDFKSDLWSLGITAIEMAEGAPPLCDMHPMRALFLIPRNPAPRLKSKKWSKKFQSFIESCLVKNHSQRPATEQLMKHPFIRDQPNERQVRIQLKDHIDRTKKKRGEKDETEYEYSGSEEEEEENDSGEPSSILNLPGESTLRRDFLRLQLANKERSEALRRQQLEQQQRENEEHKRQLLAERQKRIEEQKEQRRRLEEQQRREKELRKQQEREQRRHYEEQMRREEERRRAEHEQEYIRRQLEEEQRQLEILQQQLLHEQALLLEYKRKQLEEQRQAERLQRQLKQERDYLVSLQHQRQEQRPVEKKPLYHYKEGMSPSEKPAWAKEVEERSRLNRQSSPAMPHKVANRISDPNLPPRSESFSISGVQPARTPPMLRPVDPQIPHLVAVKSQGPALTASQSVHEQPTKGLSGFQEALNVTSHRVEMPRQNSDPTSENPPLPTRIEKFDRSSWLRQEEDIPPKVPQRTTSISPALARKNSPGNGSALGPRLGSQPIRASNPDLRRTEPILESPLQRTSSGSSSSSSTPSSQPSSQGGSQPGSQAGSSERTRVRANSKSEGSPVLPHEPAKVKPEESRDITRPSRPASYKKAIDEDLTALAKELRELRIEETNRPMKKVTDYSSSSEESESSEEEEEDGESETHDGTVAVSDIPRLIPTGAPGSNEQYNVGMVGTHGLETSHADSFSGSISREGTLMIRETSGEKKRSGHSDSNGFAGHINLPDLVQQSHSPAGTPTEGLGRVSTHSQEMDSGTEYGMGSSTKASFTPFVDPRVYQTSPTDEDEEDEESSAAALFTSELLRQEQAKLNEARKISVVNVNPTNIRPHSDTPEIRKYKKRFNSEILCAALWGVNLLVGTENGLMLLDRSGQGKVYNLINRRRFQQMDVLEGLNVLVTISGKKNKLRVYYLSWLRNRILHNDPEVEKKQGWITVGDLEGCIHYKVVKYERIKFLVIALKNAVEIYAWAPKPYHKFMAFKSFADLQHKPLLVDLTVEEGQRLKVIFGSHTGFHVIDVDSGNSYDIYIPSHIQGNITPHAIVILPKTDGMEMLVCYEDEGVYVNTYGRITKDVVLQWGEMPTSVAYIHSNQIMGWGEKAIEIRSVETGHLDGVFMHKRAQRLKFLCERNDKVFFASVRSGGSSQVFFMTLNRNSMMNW
UniProt P27448, sequence (P27448 whole entry, looked up): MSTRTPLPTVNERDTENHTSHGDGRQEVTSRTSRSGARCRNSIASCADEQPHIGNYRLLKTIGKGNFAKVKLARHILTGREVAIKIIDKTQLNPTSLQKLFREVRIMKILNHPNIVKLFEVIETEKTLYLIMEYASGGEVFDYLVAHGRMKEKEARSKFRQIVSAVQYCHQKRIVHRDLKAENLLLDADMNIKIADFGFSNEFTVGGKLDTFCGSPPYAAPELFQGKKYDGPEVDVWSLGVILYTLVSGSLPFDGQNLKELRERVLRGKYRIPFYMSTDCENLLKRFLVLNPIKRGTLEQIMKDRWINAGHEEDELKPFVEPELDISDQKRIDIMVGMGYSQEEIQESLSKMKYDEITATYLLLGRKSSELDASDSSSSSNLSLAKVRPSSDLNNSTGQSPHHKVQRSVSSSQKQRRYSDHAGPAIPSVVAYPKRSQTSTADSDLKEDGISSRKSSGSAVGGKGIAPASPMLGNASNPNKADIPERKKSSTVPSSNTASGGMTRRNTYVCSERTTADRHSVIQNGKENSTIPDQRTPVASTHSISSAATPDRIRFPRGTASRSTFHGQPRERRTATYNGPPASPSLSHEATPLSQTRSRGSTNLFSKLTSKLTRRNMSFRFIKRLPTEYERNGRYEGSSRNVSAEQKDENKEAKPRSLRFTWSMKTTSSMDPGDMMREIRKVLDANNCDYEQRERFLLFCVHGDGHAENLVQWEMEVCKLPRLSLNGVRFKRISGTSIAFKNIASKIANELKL
UniProt Q15418, sequence (Q15418 whole entry): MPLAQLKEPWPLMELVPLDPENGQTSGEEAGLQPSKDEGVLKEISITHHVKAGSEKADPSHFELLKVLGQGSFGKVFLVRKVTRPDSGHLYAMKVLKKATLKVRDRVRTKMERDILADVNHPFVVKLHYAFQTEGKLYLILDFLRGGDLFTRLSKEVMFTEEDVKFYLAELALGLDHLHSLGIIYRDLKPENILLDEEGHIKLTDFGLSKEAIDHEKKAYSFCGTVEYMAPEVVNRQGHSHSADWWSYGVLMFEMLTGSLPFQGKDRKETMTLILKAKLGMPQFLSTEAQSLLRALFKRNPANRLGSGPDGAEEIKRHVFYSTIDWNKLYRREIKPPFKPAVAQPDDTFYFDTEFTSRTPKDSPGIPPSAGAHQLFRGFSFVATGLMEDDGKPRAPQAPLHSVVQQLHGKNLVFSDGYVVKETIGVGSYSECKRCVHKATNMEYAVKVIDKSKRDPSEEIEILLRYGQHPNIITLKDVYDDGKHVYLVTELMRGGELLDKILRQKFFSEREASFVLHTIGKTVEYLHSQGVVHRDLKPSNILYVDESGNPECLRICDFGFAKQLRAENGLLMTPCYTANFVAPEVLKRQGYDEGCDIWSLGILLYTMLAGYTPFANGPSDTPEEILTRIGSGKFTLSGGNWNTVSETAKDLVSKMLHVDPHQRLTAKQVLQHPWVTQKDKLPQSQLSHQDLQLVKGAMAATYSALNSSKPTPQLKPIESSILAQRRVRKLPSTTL

CCc1cnn2c(NCc3ccc[n+]([O-])c3)cc(N3CCCC[C@H]3CCO)nc12 [dinaciclib]
< 4.52: all assays above
